How the values were obtained:
Type in all cases: cell-based
TNF-α = assay: Inhibition of TNF-α production by PMA-treated human epidermal keratinocytes (ELISA)
From the text: The prototype ligand of the TNF superfamily, TNF-α, is a pleiotropic cytokine that plays a central role in inflammation. Increase in its expression is associated with an up regulation in pro-inflammatory activity. This bioassay was used to analyze the effect of tetradecyl aminobutyroylvalylaminobutyric urea trifluoroacetate, and/or Alteromonas ferment filtrate on the production of TNF-α by human epidermal keratinocytes. The endpoint of this assay was a spectrophotometric measurement that reflects the presence of TNF-α and cellular viability. The assay employed the quantitative sandwich enzyme immunoassay technique whereby a monoclonal antibody specific for TNF-α has been pre-coated onto a microplate. Standards and samples were pipetted into the wells and any TNF-α present was bound by the immobilized antibody. After washing away any unbound substances, an enzyme-linked polyclonal antibody specific for TNF-α was added to the wells. Following a wash to remove any unbound antibody-enzyme reagent, a substrate solution was added to the wells and color develops in proportion to the amount of TNF-α bound in the initial step using a microplate reader for detection at 450 nm. The color development was stopped and the intensity of the color can be measured. […]

hyaluronic acid = assay: Production of hyaluronic acid in adult human dermal fibroblasts (HDFa), ELISA; conditions: for Hyaluronic Acid Production, Activity compared to control: HDFa cells, 24 hours
Description: Changes in the production of hyaluronic acid in human dermal fibroblasts due to each of Centella asiatica meristem cell culture, Alpinia galangal leaf extract, tripeptide-1, and TAUT were measured. Hyaluronic acid (HA) is a polysaccharide involved in stabilization of the structure of the matrix and is involved in providing turgor pressure to tissue and cells. As one non-limiting example, HA production in treated and non-treated adult human dermal fibroblasts (HDFa) cells was determined using the Hyaluronan DuoSet ELISA kit from R&D Systems (DY3614). In this assay, for production of samples, subconfluent HDFa cells from Cascade Biologics (C-13-5C) were incubated at 37° C. and 10% CO2 in starvation medium (0.15% fetal bovine serum and 1% Penicillin Streptomycin solution in Dulbecco's Modified Eagle Medium) for 72 hours prior to treatment. The cells were then incubated with fresh starvation medium with either test compound, positive control (phorbol 12-myristate 13-acetate from Sigma-Aldrich (P1585) and platelet derived growth factor from Sigma-Aldrich (P3201)), or no additive for 24 hours. Media was then collected and frozen at −80° C. until use in the ELISA assay.
Briefly, the ELISA assay employed a quantitative sandwich enzyme immunoassay technique whereby a capture antibody specific for HA can be pre-coated onto a microplate. Standards and media from treated and untreated cells were pipetted into the microplate wells to enable any HA present to be bound by the immobilized antibody. After washing away any unbound substances, an enzyme-linked detection antibody specific for HA was added to the wells. Following a wash to remove any unbound antibody-enzyme reagent, a substrate solution was added to the wells to allow color development in proportion to the amount of HA bound in the initial step. The color development was stopped at a specific time and the intensity of the color at 450 nm was measured using a microplate reader.

procollagen peptide = assay: Collagen stimulation: procollagen peptide production by human epidermal fibroblasts (ELISA); conditions: for Collagen Production, Activity compared to control: human fibroblasts treated 3 days
From the text: Collagen is an extracellular matrix protein critical for skin structure. Increased synthesis of collagen helps improve skin firmness and elasticity. This bioassay was used to examine the effect of Alpinia galangal leaf extract, dihydroxymethyl chromone, tripeptide-1, Alteromonas ferment filtrate, Pisum Sativum (pea) extract, and/or TAUT on the production of procollagen peptide (a precursor to collagen) by human epidermal fibroblasts. The endpoint of this assay was a spectrophotometric measurement that reflects the presence of procollagen peptide and cellular viability. The assay employed the quantitative sandwich enzyme immunoassay technique whereby a monoclonal antibody specific for procollagen peptide had been pre-coated onto a microplate. Standards and samples were pipetted into the wells and any procollagen peptide present was bound by the immobilized antibody. After washing away any unbound substances, an enzyme-linked polyclonal antibody specific for procollagen peptide was added to the wells. Following a wash to remove any unbound antibody-enzyme reagent, a substrate solution was added to the wells and color develops in proportion to the amount of procollagen peptide bound in the initial step using a microplate reader for detection at 450 nm. The color development was stopped and the intensity of the color was measured.
For generation of samples and controls, subconfluent normal human adult epidermal fibroblasts (Cascade Biologics) cultivated in standard DMEM growth medium with 10% fetal bovine serum (Mediatech) at 37° C. in 10% CO2, were treated with each of the ingredients for 3 days. Following incubation, cell culture medium was collected and the amount of procollagen peptide secretion quantified using a sandwich enzyme linked immuno-sorbant assay (ELISA) from Takara (# MK101).

fibronectin = assay: Fibronectin secretion by cultured human fibroblasts (ELISA); conditions: 3 days, 1.0% final concentration
From the text: Laminin and fibronectin are major proteins in the dermal-epidermal junction (DEJ) (also referred to as the basement membrane). The DEJ is located between the dermis and the epidermis interlocks forming fingerlike projections called rete ridges. The cells of the epidermis receive their nutrients from the blood vessels in the dermis. The rete ridges increase the surface area of the epidermis that is exposed to these blood vessels and the needed nutrients. The DEJ provides adhesion of the two tissue compartments and governs the structural integrity of the skin. Laminin and fibronectin are two structural glycoproteins located in the DEJ. […] Laminin and fibronectin secretion was monitored by quantifying laminin and fibronectin in cell supernatants of cultured human fibroblasts treated for 3 days with culture medium with or without 1.0% final concentration of the test ingredient(s). Following incubation, laminin and fibronectin contents were measured using immunofluorescent antibodies directed against each protein in an enzyme linked immuno-sorbant assay (ELISA). Measurements were normalized for cellular metabolic activity, as determined by bioconversion of 3-(4,5-dimethylthiazol-2-yl)-5-(3-carboxymethoxyphenyl)-2-(4-sulfophenyl)-2H-tetrazolium (MTS).

Compound | production of TNF-α (in words) (TNF-α) | TNF-α Production, Activity compared to control (TNF-α; compared to PMA, human keratinocytes, PMA 10 ng/ml, 6 hours) [%] | production of hyaluronic acid (in words) (hyaluronic acid) | Hyaluronic Acid Production, Activity compared to control (hyaluronic acid) | production of collagen (in words) (procollagen peptide) | Collagen Production, Activity compared to control (procollagen peptide) | Fibronectin Secretion, Activity compared to control (fibronectin)
tetradecyl aminobutyroylvalylaminobutyric urea trifluoroacetate [TAUT] | inhibits | −100 | increases | +64% | increases | +18% | 
tripeptide-1 |  |  | increases | +93% | increases | +20% | 
Cc1cc(=O)c2c(O)cc(O)cc2o1 [dihydroxymethyl chromone] |  |  |  |  |  | +20% | +28%

Reference: patent US20200197472A1, “COSMETIC COMPOSITIONS” (Mary Kay Inc., priority 2018, published 2020)
